From ChEMBL document CHEMBL5465560, “Selectivity Literature for EUbOPEN Chemogenomic Library” (2024)

Tests used:
[1] = molecular target: Ribosomal protein S6 kinase alpha-4 (Homo sapiens) (UniProt O75676); experiment: Selectivity interaction (KinomeScan (DiscoverX)) EUB0001079a RPS6KA4; details: at 1 µM
[2] = molecular target: Sphingosine kinase 1 (Homo sapiens) (UniProt Q9NYA1); experiment: Selectivity interaction (Adapta Assay) EUB0001632a SPHK1; details: at 10 µM
[3] = molecular target: T1, Histone-lysine N-methyltransferase EHMT1 (Homo sapiens) (UniProt Q9H9B1); experiment: Selectivity interaction (Methyltransferase screen (radiometric assays, panel of 8 PRMTs, 21 protein lysine methyltransferases, 3 DNA methyltransferases, and one RNA methyltransferase)) EUB0000271b EHMT1
T1 sequence (whole entry): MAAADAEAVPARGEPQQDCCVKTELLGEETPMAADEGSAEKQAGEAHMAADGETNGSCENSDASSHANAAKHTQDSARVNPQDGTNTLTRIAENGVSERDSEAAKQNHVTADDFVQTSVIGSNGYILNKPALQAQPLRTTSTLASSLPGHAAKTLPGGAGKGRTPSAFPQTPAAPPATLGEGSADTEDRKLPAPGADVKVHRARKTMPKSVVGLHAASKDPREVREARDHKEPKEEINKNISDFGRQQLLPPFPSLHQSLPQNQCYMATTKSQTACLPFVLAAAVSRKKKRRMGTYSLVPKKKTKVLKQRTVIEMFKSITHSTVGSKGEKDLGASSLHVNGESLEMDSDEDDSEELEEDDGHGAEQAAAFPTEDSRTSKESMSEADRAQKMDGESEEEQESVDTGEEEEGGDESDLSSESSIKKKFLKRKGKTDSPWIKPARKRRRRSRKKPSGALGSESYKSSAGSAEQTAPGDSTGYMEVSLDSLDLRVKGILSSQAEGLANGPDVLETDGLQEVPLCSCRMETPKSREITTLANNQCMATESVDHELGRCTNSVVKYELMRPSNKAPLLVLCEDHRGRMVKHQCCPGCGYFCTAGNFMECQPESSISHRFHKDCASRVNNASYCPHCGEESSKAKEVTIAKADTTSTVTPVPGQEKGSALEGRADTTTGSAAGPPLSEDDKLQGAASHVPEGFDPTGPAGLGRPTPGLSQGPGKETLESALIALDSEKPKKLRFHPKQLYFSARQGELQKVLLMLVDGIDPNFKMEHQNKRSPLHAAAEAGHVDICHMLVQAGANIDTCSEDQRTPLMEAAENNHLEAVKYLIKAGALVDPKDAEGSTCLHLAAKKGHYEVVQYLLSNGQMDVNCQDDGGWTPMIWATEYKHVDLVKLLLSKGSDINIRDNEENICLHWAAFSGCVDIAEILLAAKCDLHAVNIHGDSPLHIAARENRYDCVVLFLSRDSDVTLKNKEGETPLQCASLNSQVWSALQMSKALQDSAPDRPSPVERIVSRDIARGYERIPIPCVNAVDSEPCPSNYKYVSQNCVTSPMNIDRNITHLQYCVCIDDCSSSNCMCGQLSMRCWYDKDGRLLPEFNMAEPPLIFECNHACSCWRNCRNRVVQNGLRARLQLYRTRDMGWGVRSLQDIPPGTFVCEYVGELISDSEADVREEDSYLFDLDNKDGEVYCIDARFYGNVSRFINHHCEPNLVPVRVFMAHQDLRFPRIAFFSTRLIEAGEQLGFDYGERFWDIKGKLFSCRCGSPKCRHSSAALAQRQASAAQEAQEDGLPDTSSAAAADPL

[4] = molecular target: T2, Inhibitor of nuclear factor kappa-B kinase subunit epsilon (Homo sapiens) (UniProt Q14164); experiment: Selectivity interaction (KinomeScan (DiscoverX)) EUB0001049a IKBKE; details: at 1 µM
T2 sequence (whole entry): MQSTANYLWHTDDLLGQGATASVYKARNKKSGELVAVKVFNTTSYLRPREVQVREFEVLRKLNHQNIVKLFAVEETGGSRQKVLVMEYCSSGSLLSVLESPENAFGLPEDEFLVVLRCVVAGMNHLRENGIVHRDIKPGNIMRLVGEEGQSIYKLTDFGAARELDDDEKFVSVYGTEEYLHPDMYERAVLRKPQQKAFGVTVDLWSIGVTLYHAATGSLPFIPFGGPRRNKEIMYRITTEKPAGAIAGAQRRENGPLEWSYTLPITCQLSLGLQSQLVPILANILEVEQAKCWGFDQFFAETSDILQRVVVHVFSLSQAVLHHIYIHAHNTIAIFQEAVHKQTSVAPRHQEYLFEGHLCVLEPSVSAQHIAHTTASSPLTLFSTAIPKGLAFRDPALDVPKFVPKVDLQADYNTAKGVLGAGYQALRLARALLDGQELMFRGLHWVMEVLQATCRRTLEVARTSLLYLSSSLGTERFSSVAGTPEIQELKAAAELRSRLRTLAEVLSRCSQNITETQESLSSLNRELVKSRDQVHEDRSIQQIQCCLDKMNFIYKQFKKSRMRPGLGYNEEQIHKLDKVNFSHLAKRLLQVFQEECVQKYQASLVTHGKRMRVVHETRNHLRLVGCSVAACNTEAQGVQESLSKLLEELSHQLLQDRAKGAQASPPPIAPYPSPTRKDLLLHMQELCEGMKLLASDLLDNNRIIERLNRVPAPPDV

[5] = molecular target: Serine/threonine-protein kinase 38 (Homo sapiens) (UniProt Q15208); experiment: Selectivity interaction (ActivX KiNativ screen (ex vivo kinase selectivity in human PBMCs)) EUB0001619a STK38; type: cell-based; details: PBMC, at 1 µM
Serine/threonine-protein kinase 38 (Homo sapiens), sequence (Q15208 2-465 limits assumed): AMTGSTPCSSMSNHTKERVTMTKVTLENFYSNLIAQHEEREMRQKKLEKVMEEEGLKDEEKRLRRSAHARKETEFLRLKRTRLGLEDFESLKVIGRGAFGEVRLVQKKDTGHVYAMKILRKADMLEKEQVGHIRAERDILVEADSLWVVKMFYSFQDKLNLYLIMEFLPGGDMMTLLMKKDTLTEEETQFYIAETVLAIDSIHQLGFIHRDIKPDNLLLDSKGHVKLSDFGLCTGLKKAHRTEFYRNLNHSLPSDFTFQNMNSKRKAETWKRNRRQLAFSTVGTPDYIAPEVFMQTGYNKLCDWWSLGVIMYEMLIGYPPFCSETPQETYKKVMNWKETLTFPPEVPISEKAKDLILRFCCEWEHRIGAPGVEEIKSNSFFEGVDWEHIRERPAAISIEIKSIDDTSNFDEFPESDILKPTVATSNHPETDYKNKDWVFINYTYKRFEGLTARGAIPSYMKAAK

[6] = molecular target: Ribosomal protein S6 kinase alpha-3 (Homo sapiens, UniProt P51812); experiment: Selectivity interaction (Kinase panel (literature)) EUB0001199aCl RPS6KA3; details: at 1 µM
Ribosomal protein S6 kinase alpha-3, sequence (P51812 whole entry): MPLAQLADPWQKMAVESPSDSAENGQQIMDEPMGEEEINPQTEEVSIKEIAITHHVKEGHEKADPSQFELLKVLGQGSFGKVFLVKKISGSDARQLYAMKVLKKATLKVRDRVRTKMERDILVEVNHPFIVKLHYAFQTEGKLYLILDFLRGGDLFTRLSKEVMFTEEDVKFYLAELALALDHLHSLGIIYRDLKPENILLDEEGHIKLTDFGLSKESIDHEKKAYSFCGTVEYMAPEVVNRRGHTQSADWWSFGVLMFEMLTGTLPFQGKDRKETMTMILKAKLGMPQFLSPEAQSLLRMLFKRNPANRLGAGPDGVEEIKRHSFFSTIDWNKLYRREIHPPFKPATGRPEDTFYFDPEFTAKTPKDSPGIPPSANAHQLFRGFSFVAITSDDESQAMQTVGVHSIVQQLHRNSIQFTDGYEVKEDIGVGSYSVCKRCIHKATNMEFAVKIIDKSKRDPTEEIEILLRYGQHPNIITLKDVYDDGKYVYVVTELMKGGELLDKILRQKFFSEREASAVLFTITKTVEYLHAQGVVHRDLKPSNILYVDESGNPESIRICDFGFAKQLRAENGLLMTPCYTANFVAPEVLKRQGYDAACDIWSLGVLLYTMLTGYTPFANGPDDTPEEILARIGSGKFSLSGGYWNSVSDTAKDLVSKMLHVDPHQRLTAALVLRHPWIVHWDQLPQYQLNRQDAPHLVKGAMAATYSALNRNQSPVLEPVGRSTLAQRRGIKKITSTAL

[7] = molecular target: T3, Phosphatidylinositol 5-phosphate 4-kinase type-2 gamma (Homo sapiens) (UniProt Q8TBX8); experiment: Selectivity interaction (ActivX KiNativ screen (kinase selectivity in THP-1 cell lysates)) EUB0000639a PIP4K2C; type: subcellular; details: lysate, at 0.04 µM
T3 sequence (whole entry): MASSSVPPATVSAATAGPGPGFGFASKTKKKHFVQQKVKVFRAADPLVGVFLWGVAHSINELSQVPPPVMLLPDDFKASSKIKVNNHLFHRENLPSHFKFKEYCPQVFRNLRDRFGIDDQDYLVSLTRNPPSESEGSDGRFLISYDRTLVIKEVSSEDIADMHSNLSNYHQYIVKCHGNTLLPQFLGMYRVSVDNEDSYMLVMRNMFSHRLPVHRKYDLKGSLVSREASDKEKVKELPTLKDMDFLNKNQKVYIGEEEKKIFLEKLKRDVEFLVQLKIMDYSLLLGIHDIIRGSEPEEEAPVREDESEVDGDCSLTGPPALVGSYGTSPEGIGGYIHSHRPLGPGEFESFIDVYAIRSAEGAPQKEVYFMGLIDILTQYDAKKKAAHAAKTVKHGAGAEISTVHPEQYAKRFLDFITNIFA

Ribosomal protein S6 kinase alpha-4 (Homo sapiens), sequence (O75676 whole entry, looked up): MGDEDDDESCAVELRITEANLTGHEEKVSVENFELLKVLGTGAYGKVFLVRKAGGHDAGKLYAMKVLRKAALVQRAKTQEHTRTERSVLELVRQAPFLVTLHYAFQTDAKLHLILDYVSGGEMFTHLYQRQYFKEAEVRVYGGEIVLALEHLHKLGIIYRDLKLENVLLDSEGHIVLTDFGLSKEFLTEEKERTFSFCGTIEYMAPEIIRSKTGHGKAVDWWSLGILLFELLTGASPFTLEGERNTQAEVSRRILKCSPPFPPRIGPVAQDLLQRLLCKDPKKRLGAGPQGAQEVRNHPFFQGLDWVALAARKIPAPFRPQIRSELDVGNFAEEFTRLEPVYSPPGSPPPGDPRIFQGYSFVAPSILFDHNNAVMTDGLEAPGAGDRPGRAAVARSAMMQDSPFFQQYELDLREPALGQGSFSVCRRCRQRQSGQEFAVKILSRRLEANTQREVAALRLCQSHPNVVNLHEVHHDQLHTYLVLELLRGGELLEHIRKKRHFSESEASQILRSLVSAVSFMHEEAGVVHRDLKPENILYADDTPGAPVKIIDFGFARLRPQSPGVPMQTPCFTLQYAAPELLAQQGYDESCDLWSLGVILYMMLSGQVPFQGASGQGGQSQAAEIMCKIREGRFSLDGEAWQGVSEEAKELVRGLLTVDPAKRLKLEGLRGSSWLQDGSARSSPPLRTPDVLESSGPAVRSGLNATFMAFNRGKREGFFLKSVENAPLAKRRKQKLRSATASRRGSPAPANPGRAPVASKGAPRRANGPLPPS
Sphingosine kinase 1 (Homo sapiens), sequence (Q9NYA1 whole entry): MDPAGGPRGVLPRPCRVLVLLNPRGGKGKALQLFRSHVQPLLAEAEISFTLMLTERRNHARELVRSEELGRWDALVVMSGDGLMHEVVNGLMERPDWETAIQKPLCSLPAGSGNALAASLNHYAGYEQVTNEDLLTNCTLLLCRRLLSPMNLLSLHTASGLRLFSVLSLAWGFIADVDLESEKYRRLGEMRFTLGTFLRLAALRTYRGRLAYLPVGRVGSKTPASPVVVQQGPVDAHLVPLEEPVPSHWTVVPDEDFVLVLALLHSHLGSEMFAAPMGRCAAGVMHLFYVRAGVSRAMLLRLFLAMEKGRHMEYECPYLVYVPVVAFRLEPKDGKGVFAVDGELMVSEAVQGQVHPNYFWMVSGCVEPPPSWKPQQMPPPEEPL

`Nc1cnc(N2CCc3cc(S(=O)(=O)Nc4c(F)cc(Cl)cc4F)cc(N4CCCC4=O)c32)nc1` [TP-020n] showed a % of control [1] of 96%.

With `Cn1cc(-n2cnc3c(NCc4nc5cc(Cl)c(Cl)cc5[nH]4)nc(N4CCOCC4)nc32)cn1` the % of inhibition [2] was 53.7%.

Compound `Cc1cc(C)cc([C@@H]2c3cc(C)ccc3NC(=O)CN2C(=O)c2ccc(Br)s2)c1` has a % of activity ([3]; at 1 µM) of 99% and a % of activity ([3]; at 10 µM) of 99%.

`COc1cc(Nc2nc(C)cc(-c3cnn4nc(OC)ccc34)n2)cc(C(F)(F)F)c1` gave a % of control [4] of 83%.

With `N#Cc1cccc(-c2c[nH]c3ncnc(N4CCOCC4)c23)c1` the % of inhibition [5] was 2%.

Compound `CN1Cc2nccc(-c3cn(C)nc3-c3ccc(F)cc3)c2C1=O` has a % of inhibition [6] of 0%.

In the case of `CC[C@@H]1[C@H](F)C(=O)N[C@@H]1COc1nccc2cc(C(N)=O)c(OC)cc12` [ZIMLOVISERTIB], the % of inhibition [7] is reported as 6.2%.
